# Laboratory results published in PubChem BioAssay AID330 (DTP/NCI, 2004).
# Values joined by “and” are separate entries in the source; they are usually repeats but may differ in a detail not shown here. Equal entries are not always repeated. Inconclusive results and toxic doses are left out.
# System: P388 leukemia ip, CD2F1 mice, survival T/C
# Experiment: NCI In Vivo Anticancer Drug Screen. Data for tumor model P388 Leukemia (intraperitoneal) in CD2F1 (CDF1) mice
# Settings: endpoint: median survival time, higher = longer survival
# Method: The antitumor activity of compounds was measured in mice bearing transplantable tumors. Survival or tumor size were measured and the results are expressed as the measurement made in the treated group (T) divided by the measurement made in the vehicle treated control group (C). The tumor model used in this assay is P388 Leukemia (intraperitoneal) in CD2F1 (CDF1) mice
# [1] = dose: 15.0 mg/kg/injection, schedule: Q01DX005 (ip), vehicle: saline with Tween-80
# [2] = dose: 30.0 mg/kg/injection, schedule: Q01DX005 (ip), vehicle: saline with Tween-80
# [3] = dose: 25.0 mg/kg/injection, schedule: Q01DX005 (ip), vehicle: saline
# [4] = dose: 50.0 mg/kg/injection, schedule: Q01DX005 (ip), vehicle: saline
# [5] = dose: 50.0 mg/kg/injection, schedule: Q01DX009 (ip), vehicle: saline
# [6] = dose: 100.0 mg/kg/injection, schedule: Q01DX009 (ip), vehicle: saline
# [7] = dose: 200.0 mg/kg/injection, schedule: Q01DX009 (ip), vehicle: saline
# [8] = dose: 50.0 mg/kg/injection, schedule: Q01DX009 (ip), vehicle: saline with Tween-80
# [9] = dose: 100.0 mg/kg/injection, schedule: Q01DX009 (ip), vehicle: saline with Tween-80
# [10] = dose: 200.0 mg/kg/injection, schedule: Q01DX009 (ip), vehicle: saline with Tween-80
# [11] = dose: 25.0 mg/kg/injection, schedule: Q01DX005 (ip), vehicle: saline with Tween-80
# [12] = dose: 50.0 mg/kg/injection, schedule: Q01DX005 (ip), vehicle: saline with Tween-80
# [13] = dose: 200.0 mg/kg/injection, schedule: Q01DX005 (ip), vehicle: saline with Tween-80
# [14] = dose: 50.0 mg/kg/injection, schedule: Q01DX005 (ip), vehicle: Klucel (hydroxypropylcellulose) (HPC)
# [15] = dose: 100.0 mg/kg/injection, schedule: Q01DX005 (ip), vehicle: Klucel (hydroxypropylcellulose) (HPC)
smiles,measurement,setting,value
CCCCn1/c(=N/N=Nc2ccccc2)sc2ccccc21,T/C,"dose: 7.5 mg/kg/injection, schedule: Q01DX005 (ip), vehicle: saline with Tween-80",115 % of control
same,T/C,[1],117 % of control
same,T/C,[2],118 % of control
CC1(C)NC(=O)[C@]2(C[C@@H](O)C=C2CO)O1,T/C,[3],94 % of control
same,T/C,[4],99 % of control
same,T/C,"dose: 100.0 mg/kg/injection, schedule: Q01DX005 (ip), vehicle: saline",93 % of control
COc1cccc2c1C(=O)c1c(O)c3c(c(O)c1C2=O)C[C@@](O)(C(C)=O)C[C@@H]3OC1CC(N2CCC(OC)CC2)C(O)C(C)O1 (stereo not given in full),T/C,"dose: 0.39 mg/kg/injection, schedule: Q04DX003 (ip), vehicle: water",114 % of control
same,T/C,"dose: 0.78 mg/kg/injection, schedule: Q04DX003 (ip), vehicle: water",104 % of control
same,T/C,"dose: 1.56 mg/kg/injection, schedule: Q04DX003 (ip), vehicle: water",111 % of control and 114 % of control
same,T/C,"dose: 6.25 mg/kg/injection, schedule: Q04DX003 (ip), vehicle: water",181 % of control and 217 % of control
same,T/C,"dose: 12.5 mg/kg/injection, schedule: Q04DX003 (ip), vehicle: water",118 % of control
CCC[CH2][Sn]([CH2]CCC)([CH2]CCC)[S]C12CC3CC(CC(C3)C1)C2,T/C,"dose: 100.0 mg/kg/injection, schedule: Q04DX003 (ip), vehicle: saline",112 % of control
same,T/C,"dose: 200.0 mg/kg/injection, schedule: Q04DX003 (ip), vehicle: saline",102 % of control
same,T/C,"dose: 400.0 mg/kg/injection, schedule: Q04DX003 (ip), vehicle: saline",106 % of control
CC[n+]1cccc(O)c1,T/C,[5],105 % of control and 94 % of control
same,T/C,[6],95 % of control and 96 % of control
same,T/C,[7],107 % of control and 95 % of control
same,T/C,"dose: 400.0 mg/kg/injection, schedule: Q01DX009 (ip), vehicle: saline",100 % of control and 105 % of control
COc1ccc(C(CC(=O)N(CCCl)CCCl)CC(=O)N(CCCl)CCCl)cc1,T/C,"dose: 100.0 mg/kg/injection, schedule: Q01DX001 (ip), vehicle: suspension in saline",108 % of control
same,T/C,"dose: 200.0 mg/kg/injection, schedule: Q01DX001 (ip), vehicle: suspension in saline",119 % of control
COc1ccc(OC(=O)/C=C/c2ccccc2)cc1,T/C,"dose: 85.0 mg/kg/injection, schedule: Q04DX002 (ip), vehicle: saline with Tween-80",102 % of control
CN1CCCN(C)C1c1cc(Cl)ccc1O,T/C,"dose: 6.25 mg/kg/injection, schedule: Q01DX009 (ip), vehicle: saline sonified",90 % of control
same,T/C,"dose: 12.5 mg/kg/injection, schedule: Q01DX009 (ip), vehicle: saline sonified",100 % of control
same,T/C,"dose: 25.0 mg/kg/injection, schedule: Q01DX009 (ip), vehicle: saline sonified",90 % of control
CC1=NN(C(=O)c2ccncc2)C(=O)C1N=Nc1ccc(C)c([N+](=O)[O-])c1 (stereo not given),T/C,[8],107 % of control
same,T/C,[9],101 % of control
same,T/C,[10],97 % of control
CN1C(=O)C(=C/C=C/N(C)c2ccccc2)C(=O)N(C)C1=O,T/C,[8],96 % of control
same,T/C,[9],95 % of control
same,T/C,[10],88 % of control
C=CC1CCCCC1C=C (stereo not given),T/C,"dose: 12.5 mg/kg/injection, schedule: Q04DX003 (ip), vehicle: saline",100 % of control
same,T/C,"dose: 25.0 mg/kg/injection, schedule: Q04DX003 (ip), vehicle: saline",113 % of control
same,T/C,"dose: 50.0 mg/kg/injection, schedule: Q04DX003 (ip), vehicle: saline",100 % of control
COc1ccc2nc3ccccc3c(SCCCCCCSc3c4ccccc4nc4ccc(OC)cc34)c2c1,T/C,"dose: 15.0 mg/kg/injection, schedule: Q01DX005 (ip), vehicle: Klucel (hydroxypropylcellulose) (HPC)",101 % of control
same,T/C,"dose: 30.0 mg/kg/injection, schedule: Q01DX005 (ip), vehicle: Klucel (hydroxypropylcellulose) (HPC)",98 % of control
same,T/C,"dose: 60.0 mg/kg/injection, schedule: Q01DX005 (ip), vehicle: Klucel (hydroxypropylcellulose) (HPC)",100 % of control and 89 % of control and 90 % of control
same,T/C,"dose: 240.0 mg/kg/injection, schedule: Q01DX005 (ip), vehicle: Klucel (hydroxypropylcellulose) (HPC)",89 % of control
C=CC12COC(=O)CC1CCC(=O)C2 (stereo not given),T/C,"dose: 100.0 mg/kg/injection, schedule: Q04DX003 (ip), vehicle: Klucel (hydroxypropylcellulose) (HPC)",99 % of control
same,T/C,"dose: 200.0 mg/kg/injection, schedule: Q04DX003 (ip), vehicle: Klucel (hydroxypropylcellulose) (HPC)",100 % of control
CNC(=O)OCc1c(COC(=O)NC)c2n(c1C)CCS2(=O)=O,T/C,[11],106 % of control
same,T/C,[12],101 % of control
same,T/C,"dose: 100.0 mg/kg/injection, schedule: Q01DX005 (ip), vehicle: saline with Tween-80",86 % of control
same,T/C,[13],88 % of control
c1cc2nc(-c3ccc4cc(C5=NCCN5)[nH]c4c3)[nH]c2cc1C1=NCCN1,T/C,"dose: 12.5 mg/kg/injection, schedule: Q01DX005 (ip), vehicle: saline",106 % of control
same,T/C,[3],106 % of control
same,T/C,[4],99 % of control
CC1(C)CCCC2=C1C(=O)N(SC(Cl)(Cl)Cl)C2=O,T/C,"dose: 12.5 mg/kg/injection, schedule: Q01DX005 (ip), vehicle: Klucel (hydroxypropylcellulose) (HPC)",102 % of control
same,T/C,"dose: 25.0 mg/kg/injection, schedule: Q01DX005 (ip), vehicle: Klucel (hydroxypropylcellulose) (HPC)",121 % of control
same,T/C,[14],121 % of control and 123 % of control
same,T/C,[15],122 % of control
CCC(CC)(C(=O)Nc1ccc2nc(C)cc(N)c2c1)C(=O)Nc1ccc2nc(C)cc(N)c2c1,T/C,"dose: 12.5 mg/kg/injection, schedule: Q01DX005 (ip), vehicle: saline with Tween-80",102 % of control
same,T/C,[11],90 % of control
same,T/C,[12],87 % of control and 93 % of control
same,T/C,[13],93 % of control
COc1cc(/C=C/c2ccnnc2)cc(OC)c1OC,T/C,[5],97 % of control
same,T/C,[6],94 % of control
same,T/C,[7],87 % of control
O=C(Sc1ccc(F)cc1)N1CCN(C(=O)Sc2ccc(F)cc2)CC1,T/C,[14],99 % of control
same,T/C,[15],96 % of control
same,T/C,"dose: 200.0 mg/kg/injection, schedule: Q01DX005 (ip), vehicle: Klucel (hydroxypropylcellulose) (HPC)",100 % of control
CNC(=O)OCc1nn(-c2ccc(OC)cc2)c(C)c1COC(=O)NC,T/C,"dose: 12.5 mg/kg/injection, schedule: Q01DX009 (ip), vehicle: distilled water + Tween-80",92 % of control
same,T/C,"dose: 25.0 mg/kg/injection, schedule: Q01DX009 (ip), vehicle: distilled water + Tween-80",90 % of control
same,T/C,"dose: 50.0 mg/kg/injection, schedule: Q01DX009 (ip), vehicle: distilled water + Tween-80",90 % of control
same,T/C,"dose: 100.0 mg/kg/injection, schedule: Q01DX009 (ip), vehicle: distilled water + Tween-80",90 % of control
same,T/C,"dose: 200.0 mg/kg/injection, schedule: Q01DX009 (ip), vehicle: distilled water + Tween-80",87 % of control
CC(=O)C(=O)c1ccc(O)cc1,T/C,"dose: 10.0 mg/kg/injection, schedule: Q01DX009 (ip), vehicle: saline with Tween-80",96 % of control
same,T/C,"dose: 20.0 mg/kg/injection, schedule: Q01DX009 (ip), vehicle: saline with Tween-80",94 % of control
same,T/C,"dose: 40.0 mg/kg/injection, schedule: Q01DX009 (ip), vehicle: saline with Tween-80",99 % of control
NC(=O)c1ccc[n+](CCC[n+]2cccc(C(N)=O)c2)c1,T/C,"dose: 60.0 mg/kg/injection, schedule: Q01DX005 (ip), vehicle: saline",103 % of control
same,T/C,"dose: 120.0 mg/kg/injection, schedule: Q01DX005 (ip), vehicle: saline",101 % of control
same,T/C,"dose: 240.0 mg/kg/injection, schedule: Q01DX005 (ip), vehicle: saline",99 % of control
CC1C(C(=O)NCC(c2ccccc2)c2ccccc2)CC2CCCCN21 (stereo not given),T/C,[1],96 % of control
same,T/C,[2],92 % of control
same,T/C,"dose: 60.0 mg/kg/injection, schedule: Q01DX005 (ip), vehicle: saline with Tween-80",91 % of control and 92 % of control
CCOP(=O)(Nc1cc(C)ccc1C)OCC,T/C,[5],100 % of control
same,T/C,"dose: 100.0 mg/kg/injection, schedule: Q01DX001 (ip), vehicle: saline with Tween-80",105 % of control
same,T/C,[6],104 % of control
same,T/C,"dose: 200.0 mg/kg/injection, schedule: Q01DX001 (ip), vehicle: saline with Tween-80",112 % of control
same,T/C,[7],106 % of control
same,T/C,"dose: 400.0 mg/kg/injection, schedule: Q01DX001 (ip), vehicle: saline with Tween-80",109 % of control
